Experiments:
[1] = Metabolite profiling of plasma and feces after oral dose in rats; assay type: in vivo; details: 75 mg/kg oral
Protocol: Radiolabeled components in plasma and feces extracts were profiled and identified using radio-high performance liquid chromatography (HPLC) and high performance liquid chromatography/mass spectrometry (HPLC/MS) methods.
Plasma pools were prepared for Group 1 (75 mg/kg, [^14C]-25HC3S) samples collected at 2, 4, and 6 hours post-dose. […] One metabolite M29 was identified as 25-hydroxycholesterol with 37% ROI and a concentration of 1233 ng-equiv./g.
Feces pools were prepared for Group 2 (75 mg/kg, [^14C]-25HC3S) samples collected from 0 to 24, 24 to 48, 48 to 72, 72 to 96, 96 to 120, 120 to 144, and 144 to 168 hours post-dose. A total of eleven metabolites were identified. None of the metabolites were present at ≥5% of dose. Metabolites present at 2-5% of dose were M1 (4.5% of total dose and 1%-69% ROI), M3 (4.6% of total dose and 1%-44% ROI), M4 (2.0% of total dose and 0%-10% ROI), M8 (3.1% of total dose and 1%-46% ROI), […], and M30 (3.3% of total dose and 0%-5% ROI).

[2] = Single dose safety and pharmacokinetic study in subjects with NASH and control healthy subjects; assay type: in vivo, human
Protocol: The present Example was a randomized, dose ranging, single dose safety and pharmacokinetic study of 25HC3S administered to subjects with NASH and control healthy subjects. […] For each cohort, 10 subjects with NASH were enrolled which were further classified into cirrhotic and non-cirrhotic. Each subject received only one dose of study treatment. The second cohort was dosed after a review of safety and tolerability data from Cohort 1.

[3] = Plasma pharmacokinetics after single oral (gavage) dose in rats; assay type: in vivo; details: 75 mg/kg single oral (gavage) dose
Protocol: The terminal elimination phase T1/2 was 27.3 hours.

[4] = Plasma pharmacokinetics of radioactivity after single intravenous dose in rats; assay type: in vivo, Sprague Dawley rats; details: 10 mg/kg single intravenous (bolus) dose
Source text: (§1) The objectives of this study were to determine the plasma pharmacokinetics of [4-^14C]-25HC3S-derived radioactivity in male Sprague Dawley rats, determine the routes of elimination and excretion mass balance of [4-^14C]-25HC3 S-derived radioactivity in male Sprague Dawley rats, determine the tissue distribution and tissue pharmacokinetics of [4-^14C]-25HC3S-derived radioactivity using quantitative whole body autoradiography methods in male Sprague Dawley and Long Evans rats following a single intravenous (bolus) dose, and to provide plasma, urine, and fecal homogenate samples for metabolite profiling of [4-^14C]-25HC3 S-derived radioactivity.
(§2) Nine male Sprague Dawley rats (Group 1) were designated for the pharmacokinetic phase, 3 male Sprague Dawley rats (Group 2) for the excretion mass balance phase, and 7 male Sprague Dawley rats (Group 3) and 9 male Long Evans rats (Group 4) for the tissue distribution phase. All animals received a single intravenous dose of [^14C]-25HC3S at 10 mg/kg and a target radioactivity of 225 μCi/kg. Blood samples were collected from all Group 1 animals at approximately 0.083, 0.25, 0.5, 1, 2, 4, 8, 12, 24, 48, and 72 hours post-dose. Urine and feces were collected from all Group 2 animals periodically through 168 hours post-dose. […] Following blood collection, animals were euthanized by CO2 inhalation and carcasses frozen in a dry ice/hexane bath for processing by quantitative whole body autoradiography. Whole blood, plasma, urine, feces, cage rinse, and cage wash were analyzed for total radioactivity by liquid scintillation counting.

[5] = Excretion after single oral (gavage) dose in rats; assay type: in vivo; details: 75 mg/kg single oral (gavage) dose
[6] = Tissue distribution by quantitative whole body autoradiography after single oral (gavage) dose; assay type: in vivo, Sprague Dawley rats; details: 75 mg/kg oral
[7] = Tissue distribution by quantitative whole body autoradiography after single intravenous dose; assay type: in vivo, Sprague Dawley rats; details: 10 mg/kg intravenous
Source text: as §1, §2

desmosterol sulfate
presence in plasma or feces samples [1]: not found

C[C@H](CCCC(C)(C)O)[C@H]1CC[C@H]2[C@@H]3CC=C4C[C@@H](OS(=O)(=O)[O-])CC[C@]4(C)[C@H]3CC[C@]12C.[Na+] [25HC3S sodium]
difference between healthy and NASH subjects in pharmacokinetics (Cmax and AUC) ([2]; 50 mg and 200 mg): no clear difference
increase of geometric mean Cmax in NASH subjects over healthy subjects ([2]; Cohorts 1 and 2): 18-24%
increasing trends in exposure (AUC parameters) in NASH subjects ([2]; NASH versus healthy subjects): up to 31%

C[C@H](CCCC(C)(C)O)[C@H]1CC[C@H]2[C@@H]3CC=C4[14CH2][C@@H](OS(=O)(=O)O)CC[C@]4(C)[C@H]3CC[C@]12C [[4-^14C]-25HC3S]
plasma AUClast (radioactivity) [3]: 96,400 h·ng equiv./g
terminal elimination phase T1/2 [3]: 27.3 h
mean plasma C0 (radioactivity) [4]: 25,900 ng-equiv./g
plasma AUClast (radioactivity) [4]: 27,900 h*ng-equiv./g
terminal elimination phase T1/2, plasma [4]: 26.6 h
dose recovered in urine, feces, and cage rinse [5]: approximately 94.5%
recovered radioactivity in feces [5]: 94.2%
plasma:whole blood AUClast ratio [6]: 1.12
skin, thymus, prostate, and pituitary tissue concentrations [6]: < 3000 ng equiv./g
tissue Tmax [6]: ≤ 6 h
tissue concentrations by 168 hours post-dose [6]: near or below the quantitation limit in all tissues except adrenal gland and liver
tissue distribution of drug and/or its metabolites [6]: broadly distributed and detected by quantitative whole body autoradiography in all tissues except the eye (lens)
tissue:plasma ratio (AUClast), adrenal gland [6]: 6.64
tissue:plasma ratio (AUClast), liver [6]: 6.96
tissue:plasma ratio (AUClast), small intestine (wall) [6]: 15.4
uveal tract and brain concentrations [6]: approximately 1000 ng equiv./g
whole blood AUClast [6]: 127,000 h·ng equiv./g
AUClast in liver [7]: ≤ 364,000 h·ng/g
concentrations in thymus, bone (femur), uveal tract, fat, testes, and brain (approximate) [7]: around 1500 ng-equiv./g
concentrations in thymus, bone (femur), uveal tract, fat, testes, and brain (bound) [7]: < 5000 ng-equiv./g
tissue concentrations by 168 hours postdose [7]: below quantitation limit in all tissues except adrenal gland, harderian gland, liver, and small intestine
tissue:plasma ratio (AUClast), liver [7]: 11.4
tissue:plasma ratio (AUClast), small intestine (wall) [7]: 7.44
tissue distribution of drug and/or its metabolites ([7]; Group 3): broadly distributed and detected by quantitative whole body autoradiography in all tissues except the eye (lens)

— patent US20230181602A1, “TREATMENT OF NON-ALCOHOLIC STEATOHEPATITIS (NASH)” (DURECT CORPORATION, priority 2020, published 2023)
